In article PMC4913548 (OncoTargets and therapy, 2016):

Molecular target: estrogen receptor α (Homo sapiens, UniProt P03372)
Experiment: ERE-Luc/catD-Luc reporter assay in SH-SY5Y cells
Type: cell-based

estrogen receptor α, sequence (P03372 whole entry): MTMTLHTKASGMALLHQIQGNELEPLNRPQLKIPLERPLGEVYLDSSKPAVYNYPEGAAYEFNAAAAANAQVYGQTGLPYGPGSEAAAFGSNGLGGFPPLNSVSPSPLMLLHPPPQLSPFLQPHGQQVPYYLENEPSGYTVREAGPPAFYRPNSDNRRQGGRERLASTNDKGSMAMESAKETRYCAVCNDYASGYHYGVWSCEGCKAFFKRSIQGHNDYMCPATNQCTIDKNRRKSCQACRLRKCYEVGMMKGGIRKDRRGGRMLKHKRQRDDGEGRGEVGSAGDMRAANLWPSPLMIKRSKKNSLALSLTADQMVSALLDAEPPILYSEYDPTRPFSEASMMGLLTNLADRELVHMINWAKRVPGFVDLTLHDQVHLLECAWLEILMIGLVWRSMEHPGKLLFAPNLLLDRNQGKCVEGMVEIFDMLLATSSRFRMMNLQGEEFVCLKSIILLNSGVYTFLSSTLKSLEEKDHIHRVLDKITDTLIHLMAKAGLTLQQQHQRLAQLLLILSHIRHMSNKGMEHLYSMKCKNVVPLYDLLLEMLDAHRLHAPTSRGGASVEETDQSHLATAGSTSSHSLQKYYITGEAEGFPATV

nonylphenol gave an EC50 of 580 ± 250 nM.
